Results on five compounds are retold here after US20020102246A1, “Antimicrobial compositions” (Novozymes A/S, priority 2000, published 2002).

Marks after values point to notes of the source that are not given here.

The experiment relates to Pseudomonas putida (ATCC 12633). The experiment is described as follows: Antimicrobial activity of mediators oxidized by Coprinus cinereus peroxidase (rCiP). In kind it is cell-based. Particulars: 50 μM mediator, rCiP 4 POXU/L, 0.5 mM hydrogen peroxide, 20 minutes at 40° C., pH 7; 6 corresponds to a total kill. The procedure:
Antibacterial activity of 4-aminophenol, 4-hydroxy-4′-dimethylamino azobenzene, 4,4′-biphenol, 10-methylphenoxazine and 4,4′-dihydroxydiphenyl ether was evaluated when oxidized by Coprinus cinereus peroxidase (rCiP) (available from Novozymes A/S).
Antimicrobial activity was determined on Pseudomonas putida (ATCC 12633), the cells were grown in Tryptone Soy Broth, TSB (Oxoid CM129) overnight, washed two times in sterile 0.9% saline and suspended in 50 mM HEPES buffer (Sigma H3375) at pH 7 to a cell concentration of approximately 10^6 CFU/ml. The mediators were added to the cell suspension to a final concentration of 50 μM, rCiP was added to the concentration 4 POXU/L and the enzyme reaction was started by addition of hydrogen peroxide to a final concentration of 0.5 mM. Antimicrobial activity was determined after 20 minutes incubation at 40° C., by a 10-fold dilution of the cell suspension into TSB substrate and incubation overnight. Antimicrobial activity was determined as log10 reduction, thus a log10 reduction of 2 corresponds to a kill of 99%.
For `Nc1ccc(O)cc1` [4-aminophenol], the Log10 reduction is listed as 2.5. In the case of `Oc1ccc(Oc2ccc(O)cc2)cc1` [4,4′-Dihydroxyphenyl ether, 4,4′-Dihydroxydiphenyl ether] it was 2.5; in that of `CN(C)c1ccc(N=Nc2ccc(O)cc2)cc1` [4-Hydroxy-4′-dimethylamino azobenzene], 6*; in that of `Oc1ccc(-c2ccc(O)cc2)cc1` [4,4′-Biphenol, 97%, 4,4′-Biphenol], 1.5. In the case of `CN1c2ccccc2Oc2ccccc21` [10-Methylphenoxazine] it was 3.
